Laboratory results taken from patent US9788542B2, “Safened herbicidal compositions including 4-amino-3-chloro-5-fluoro-6-(4-chloro-2-fluoro-3-methoxyphenyl)pyridine-2-carbox) acid or a derivative thereof for use in corn (maize)” (Dow AgroSciences LLC, priority 2013, dated 2017).
Values joined by “and” are separate entries in the source; they are usually repeats but may differ in a detail not shown here. Identical values can stand only once. Like-named read-outs stand apart in the source and are kept apart here.

Assays:
Assay type in all cases: in vivo
[1] = test system: ABUTH = Abutilon theophrasti Medik.; experiment: Postemergence herbicidal activity, greenhouse, visual injury; settings: for pest or weed control at 5 g/ha / pest or weed control at 40 g/ha: Abutilon theophrasti, post-emergence, 480 h, read-out: ABUTH Obs (observed visual injury)
Protocol: (§1) When required to ensure good germination and healthy plants, a fungicide treatment and/or other chemical or physical treatment was applied. The plants were grown for 7-36 days in a greenhouse with an approximate 14 hour photoperiod which was maintained at about 18° C. during the day and 17° C. during the night. Nutrients and water were added on a regular basis and supplemental lighting was provided with overhead metal halide 1000-Watt lamps as necessary. The plants were employed for testing when they reached the second or third true leaf stage. Treatments consisted of ester (benzyl) compound of formula (I) (Compound A benzyl ester) and various safeners alone and in combination. Compound of formula (I) and safener components were applied on active ingredient basis. For treatments comprised of formulated compounds, measured amounts of compound of formula (I) were placed individually in 25 mL glass vials and diluted in a volume of 1.25% volume per volume (v/v) Agri-dex crop oil concentrate to obtain stock solutions. […] Stock solutions of the formulated safeners were prepared following the same procedure. Application solutions were prepared by mixing the required amount of each stock solution and addition of an appropriate volume of an aqueous mixture of 1.25% v/v of Agri-dex crop oil concentrate to the appropriate final concentrations of application solutions. […] Application solutions were prepared by adding an appropriate amount of each stock solution and diluted to the appropriate final concentrations with the addition of an appropriate volume of an aqueous mixture of 1.25% (v/v) Agri-dex crop oil concentrate. Application solutions were applied to the plant material with an overhead Mandel track sprayer equipped with […] nozzles calibrated to deliver 187 liters per hectare (L/ha) over an application area of 0.503 square meters (m^2) at a spray height of 18 inches ([…]) above average plant canopy. Control plants were sprayed in the same manner with the solvent blank. The treated plants and control plants were placed in a greenhouse as described above and watered by sub-irrigation to prevent wash-off of the test compounds. […] Colby's equation was used to determine the herbicidal effects expected from the mixtures (Colby, S. R. Calculation of the synergistic and antagonistic response of herbicide combinations. Weeds 1967, 15, 20-22.). The following equation was used to calculate the expected activity of mixtures containing two active ingredients, A and B: […] A=observed efficacy of active ingredient A at the same concentration as used in the mixture; B=observed efficacy of active ingredient B at the same concentration as used in the mixture.

[2] = test system: HELAN = Helianthus annuus L.; experiment: as above; settings: for pest or weed control at 5 g/ha / pest or weed control at 40 g/ha: Helianthus annuus, post-emergence, 480 h, read-out: HELAN Obs (observed visual injury)
Protocol: as §1

ZEAMX = Zea mays L. = experiment: Postemergence herbicidal safening in corn (maize), greenhouse, visual injury; settings: for ZEAMX Obs (observed visual injury, 0 = no injury, 100 = complete kill): applied alone at 4 g ai/ha
Protocol: as §1

[3] = applied alone at 5 g ai/ha, postemergence, after 20-22 days
[4] = applied alone at 40 g ai/ha, postemergence, after 20-22 days
[5] = postemergence, after 20-22 days
[6] = applied alone at 6 g ai/ha, postemergence, after 20-22 days
[7] = applied alone at 20 g ai/ha, postemergence, after 20-22 days
[8] = applied alone at 80 g ai/ha, postemergence, after 20-22 days
[9] = applied alone at 160 g ai/ha, postemergence, after 20-22 days

SMILES | pest or weed control at 5 g/ha [1, 3] [%] | pest or weed control at 40 g/ha [1, 4] [%] | pest or weed control at 5 g/ha [2, 3] [%] | pest or weed control at 40 g/ha [2, 4] [%] | ZEAMX Obs (observed visual injury) (ZEAMX = Zea mays L.; [3]) [%] | ZEAMX Obs (observed visual injury) (ZEAMX = Zea mays L.; [4]) | other results
CC1COc2ccccc2N1C(=O)C(Cl)Cl (racemic) [Benoxacor, (±)-4-(dichloroacetyl)-3,4-dihydro-3-methyl-2H-1,4-benzoxazine] | 0 | 0 | 0 | 0 | 0 | 0% | –
FC(F)(F)/C(=N/OCC1OCCO1)c1ccc(Cl)cc1 [Fluxofenim, 1-(4-chlorophenyl)-2,2,2-trifluoroethanone O-(1,3-dioxolan-2-ylmethyl)oxime] | 0 | 0 | 0 | 0 | 0 | 0% | –
NC(=O)NS(=O)(=O)c1ccccc1Cl [Compound 2-CBSU, N-(aminocarbonyl)-2-chlorobenzenesulfonamide] | 0 | 0 | 0 | 0 | 0 | 0% | –
CC1(C)CN2C(=O)CCC2(C)N(C(=O)C(Cl)Cl)C1 (racemic) [Dicyclonon] | 0 | 0 | 0 | 0 | 0 | 0% | –
CCOC(=O)C1=NOC(c2ccccc2)(c2ccccc2)C1 [Isoxadifen-ethyl, ethyl 4,5-dihydro-5,5-diphenyl-3-isoxazole-carboxylate] | – | – | – | – | 0 | 0% | pest or weed control at 5 g/ha [1]: 0%; pest or weed control at 40 g/ha [1]: 0%; pest or weed control at 5 g/ha [2]: 0%; pest or weed control at 40 g/ha [2]: 0%; ZEAMX Obs (observed visual injury, 0 = no injury, 100 = complete kill) (ZEAMX = Zea mays L.; [5]): 0%; ZEAMX Obs (observed visual injury) (ZEAMX = Zea mays L.; [6]): 0%; ZEAMX Obs (observed visual injury) (ZEAMX = Zea mays L.; applied alone at 8 g ai/ha, postemergence, after 20-22 days): 0%; ZEAMX Obs (observed visual injury) (ZEAMX = Zea mays L.; applied alone at 12 g ai/ha, postemergence, after 20-22 days): 0%; ZEAMX Obs (observed visual injury) (ZEAMX = Zea mays L.; [7]): 0%; ZEAMX Obs (observed visual injury) (ZEAMX = Zea mays L.; [8]): 0%; ZEAMX Obs (observed visual injury) (ZEAMX = Zea mays L.; [9]): 3%
C=CCN(CC=C)C(=O)C(Cl)Cl [Dichlormid, N,N-diallyl-2,2-dichloroacetamide] | 0 | 0 | 0 | 0 | 0 | 0% | –
CC1(C)OC(c2ccco2)CN1C(=O)C(Cl)Cl (racemic) [Furilazole, (±)-3-(dichloroacetyl)-5-(2-furanyl)-2,2-dimethyloxazolidine] | 0 | 0 | 0 | 0 | 0 | 0% | –
Cc1ccc(NC(=O)NC(C)(C)c2ccccc2)cc1 [Daimuron, N-(4-methylphenyl)-N′-(1-methyl-1-phenylethyl)-urea] | 0 | 0 | 0 | 0 | – | – | ZEAMX Obs (observed visual injury) (ZEAMX = Zea mays L.; in vivo): 0%
N#C/C(=N/OCC1OCCO1)c1ccccc1 [Oxabetrinil, α-[(1,3-dioxolan-2-yl)methoxyimino]benzeneacetonitrile] | 0 | 0 | 0 | 0 | 0 | 0% | –
COc1c(Cl)ccc(-c2nc(C(=O)OCc3ccccc3)c(Cl)c(N)c2F)c1F [Compound A benzyl ester] | – | – | – | – | – | 45% and 23% | ABUTH Obs (observed visual injury) [1, 4]: 95%; HELAN Obs (observed visual injury) [2, 4]: 94%; ZEAMX Obs (observed visual injury, 0 = no injury, 100 = complete kill) (ZEAMX = Zea mays L.; [5]): 10%; ZEAMX Obs (observed visual injury) (ZEAMX = Zea mays L.; [6]): 16%; ZEAMX Obs (observed visual injury) (ZEAMX = Zea mays L.; [7]): 32%
CCCCCC(C)OC(=O)COc1ccc(Cl)c2cccnc12 (stereo not shown) [Cloquintocet-mexyl] | – | – | – | – | – | 0% | ZEAMX Obs (observed visual injury) (ZEAMX = Zea mays L.; [7]): 0%; ZEAMX Obs (observed visual injury) (ZEAMX = Zea mays L.; [8]): 0%; ZEAMX Obs (observed visual injury) (ZEAMX = Zea mays L.; [9]): 0%
O=C1OC(=O)c2cccc3cccc1c23 [Naphthalic anhydride, naphthalene-1,8-dicarboxylic anhydride] | 0 | 0 | 0 | 0 | 0 | 0% | –
